Source: PMC5831858, “Pharmacological characterisation of CR6086, a potent prostaglandin E2 receptor 4 antagonist, as a new potential disease-modifying anti-rheumatic drug” (Arthritis Research & Therapy, 2018)
Marks after values point to notes of the source that are not given here.

How the values were obtained:
[1] = target: M3 (Homo sapiens, UniProt P20309); assay: Muscarinic acetylcholine receptor M3 binding; details: [^3H]4-DAMP, Human recombinant CHO cells, read-out: CR6086 Activity at 10µM
[2] = target: µ (MOP) (Homo sapiens, UniProt P35372); assay: Opioid receptor µ (MOP) binding; details: [^3H]DAMGO, Human recombinant HEK-293 cells, read-out: CR6086 Activity at 10µM
[3] = target: β2 (Homo sapiens, UniProt P07550); assay: Adrenergic receptor β2 binding; details: [^3H](-)CGP 12177, Human recombinant CHO cells, read-out: CR6086 Activity at 10µM
[4] = system: arthritic mice (collagen-induced arthritis model); assay: CIA in mice, first study: clinical score and paw swelling; format: in vivo, mouse; details: 10 days; CR6086 30 and 60 mg/kg, naproxen 60 mg/kg oral once daily; etanercept 10 mg/kg i.p. every other day
Method: Male DBA/1 mice were immunised by intradermal injection at the base of the tail with an emulsion of 200 μg of bCII in CFA containing 3 mg/ml Mycobacterium tuberculosis. Non-immunised mice served as the negative control of disease. Animals were monitored by visual inspection for appearance of peripheral oedema. […] Upon onset, animals were recruited and randomised. Recruitment was given a cut-off at day 40. Upon recruitment, arthritis clinical score was assigned, and oedema was measured via caliper.
In a first study, mice were randomised into the following treatment groups: vehicle, 30 mg/kg CR6086, 60 mg/kg CR6086, 60 mg/kg naproxen and 10 mg/kg etanercept. Animals received the test drugs for 10 days. CR6086 and naproxen were administered orally once daily, whereas etanercept was administered intraperitoneally every other day. Animals treated with vehicle, 60 mg/kg CR6086, naproxen and etanercept were additionally analysed for the proportion of populations of Th17 cells, Th1 cells, regulatory T cells, B cells, macrophages, neutrophils and dendritic cells by fluorescence-activated cell sorting (FACS) after collection of blood, draining lymph nodes and joints.
Oedema measurement was performed every day before treatment, and all animals were blindly scored for clinical signs of arthritis as follows: 0 = normal; 1 = slight swelling and/or erythema; 2 = pronounced oedematous swelling; and 3 = ankyloses and severe swelling. A score of 0.5 was given to swollen toe/toes or when inflammation was localised to one part of the foot. Each limb was measured separately, with a final score based on the sum of the scores from all four paws.

[5] = system: arthritic rats (collagen-induced arthritis model); assay: Mechanical hyperalgesia (PAM) in CIA rats; format: in vivo, rat; details: 15 mg/kg, mean ± SEM
Method: Male Lewis rats were immunised by intradermal injection at the base of the tail with an emulsion containing 150 μg of bovine collagen type II (bCII) in complete Freund’s adjuvant (CFA) or received an injection with incomplete Freund’s adjuvant (sham group). Three weeks after the first immunisation, animals were boosted with the same procedure. Three days after booster injection, arthritis had developed in all animals but the sham group. Oedema was assessed via plethysmometer (Ugo Basile, Varese, Italy), and the animals were then randomised to treatment groups. Oedema measurement was performed again after 7 and 14 days of treatment. Animals were blindly scored by two different investigators for clinical signs of arthritis (redness, swelling, pain of hind limb joints) as follows: 0 = normal; 1 = mild but definite redness and swelling of the ankle or wrist or individual digits, regardless of the number of affected digits; 2 = moderate redness and swelling of ankle or wrist; 3 = severe redness and swelling of the entire paw including digits; and 4 = maximally inflamed limb with involvement of multiple joints. The mean of the scores assigned by the investigators was calculated.
In the comparative experiment vs rofecoxib, mechanical hyperalgesia was assessed at the end of treatment by using a digital pressure application measurement (PAM) device (Ugo Basile). Increasing pressure was applied to the lateral side of the knee until the animal attempted to escape or vocalised. The force required to elicit this response was measured in grams (gram-force). An optimal stimulus increase rate of 100 g/second was used, and mechanical thresholds were reached after approximately 10 seconds. This increase was visualised with a rate meter on the built-in display, so the pressure applied was visually controlled. At the end of the experiment, animals were killed, and their hind paws were explanted and processed for histology.

[6] = target: PAC1 (PACAP) (Homo sapiens, UniProt P41586); assay: PAC1 receptor binding; details: [^125I]PACAP1-27, Human recombinant CHO cells, read-out: CR6086 Activity at 10µM
[7] = target: Y1 (Homo sapiens, UniProt P25929); assay: Neuropeptide Y receptor Y1 binding; details: [^125I]peptide YY, SK-N-MC cells (endogenous), read-out: CR6086 Activity at 10µM
[8] = target: D2S (Homo sapiens, UniProt P14416); assay: Dopamine receptor D2S binding; details: [^3H]methyl-spiperone, Human recombinant HEK-293 cells, read-out: CR6086 Activity at 10µM
[9] = target: M2 (Homo sapiens, UniProt P08172); assay: Muscarinic acetylcholine receptor M2 binding; details: [^3H]AF-DX 384, Human recombinant CHO cells, read-out: CR6086 Activity at 10µM
[10] = target: κ (KOP) (Homo sapiens, UniProt P41145); assay: Opioid receptor κ (KOP) binding; details: [^3H]U 69593, Human recombinant CHO cells, read-out: CR6086 Activity at 10µM
[11] = Plasma protein binding (equilibrium dialysis, [^14C]CR6086); format: in vitro ADME; details: rat, 0.2–200 μM, read-out: unbound fraction (fu)
Method: CR6086 concentrations in rat plasma were determined by high-performance liquid chromatography (Agilent 1200 series; Agilent Technologies, Santa Clara, CA, USA) coupled with a triple-quadrupole mass spectrometer (API 4000 QTRAP; SCIEX, Concord, ON, Canada). A ZORBAX SB-C18 2.0 × 50-mm, 3.5-μm column (Agilent Technologies) in isocratic conditions was used with mobile phase 0.1% formic acid in water/acetonitrile (68:32 vol/vol). The method was linear within the dynamic range 1.0–10,000 ng/ml (lower to upper limit of quantification). CR6086 plasma protein binding was determined in the 0.2–200 μM concentration range using [^14C]CR6086 and equilibrium dialysis. EP4 receptor occupancy (RO) was calculated on the basis of CR6086 concentrations according to the following formula: RO%=Cave/Cave+Ki×100,

[12] = target: NTS1 (NT1) (Homo sapiens, UniProt P30989); assay: NTS1 receptor binding; details: [^125I]Tyr^3-neurotensin, Human recombinant CHO cells, read-out: CR6086 Activity at 10µM
[13] = system: Ca2+ channel (L, verapamil site); assay: Ion channel Ca2+ (L, verapamil site) binding; details: up to 100µM (cell); [^3H]verapamil [^3H]D888; Rat cerebral cortex

NTS1 (NT1), sequence (P30989 whole entry): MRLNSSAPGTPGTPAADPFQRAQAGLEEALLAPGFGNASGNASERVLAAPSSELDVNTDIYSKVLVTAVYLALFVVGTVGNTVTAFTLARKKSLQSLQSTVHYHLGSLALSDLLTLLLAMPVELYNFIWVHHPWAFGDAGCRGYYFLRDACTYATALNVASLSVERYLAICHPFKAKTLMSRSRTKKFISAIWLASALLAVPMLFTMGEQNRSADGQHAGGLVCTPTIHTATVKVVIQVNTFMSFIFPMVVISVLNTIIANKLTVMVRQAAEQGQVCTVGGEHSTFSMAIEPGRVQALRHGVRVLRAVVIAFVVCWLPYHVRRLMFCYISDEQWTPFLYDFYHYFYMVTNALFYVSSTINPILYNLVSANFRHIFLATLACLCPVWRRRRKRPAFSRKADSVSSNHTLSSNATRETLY
M2, sequence (P08172 whole entry): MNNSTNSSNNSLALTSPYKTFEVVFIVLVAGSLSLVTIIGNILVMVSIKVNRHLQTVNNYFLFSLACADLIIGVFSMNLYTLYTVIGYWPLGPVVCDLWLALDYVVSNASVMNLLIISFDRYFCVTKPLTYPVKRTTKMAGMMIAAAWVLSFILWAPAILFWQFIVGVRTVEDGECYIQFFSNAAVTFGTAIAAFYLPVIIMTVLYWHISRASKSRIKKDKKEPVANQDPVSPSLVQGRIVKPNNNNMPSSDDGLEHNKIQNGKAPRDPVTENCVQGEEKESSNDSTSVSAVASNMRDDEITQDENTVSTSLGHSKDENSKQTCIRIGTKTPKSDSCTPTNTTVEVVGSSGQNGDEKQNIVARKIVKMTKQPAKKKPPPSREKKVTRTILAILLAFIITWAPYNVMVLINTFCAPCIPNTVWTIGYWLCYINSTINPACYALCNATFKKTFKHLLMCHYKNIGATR
β2, sequence (P07550 whole entry): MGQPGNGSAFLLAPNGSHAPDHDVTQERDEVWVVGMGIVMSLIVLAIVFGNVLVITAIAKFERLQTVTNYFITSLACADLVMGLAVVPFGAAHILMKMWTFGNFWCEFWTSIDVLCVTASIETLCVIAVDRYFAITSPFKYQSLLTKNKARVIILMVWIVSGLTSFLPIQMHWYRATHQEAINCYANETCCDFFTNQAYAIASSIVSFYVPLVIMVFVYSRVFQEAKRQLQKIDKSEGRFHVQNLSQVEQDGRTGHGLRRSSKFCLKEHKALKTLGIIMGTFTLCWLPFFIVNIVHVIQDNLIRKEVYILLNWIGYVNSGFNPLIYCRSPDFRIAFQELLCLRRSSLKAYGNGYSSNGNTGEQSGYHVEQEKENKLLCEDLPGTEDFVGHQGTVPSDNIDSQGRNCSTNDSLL
κ (KOP), sequence (P41145 whole entry): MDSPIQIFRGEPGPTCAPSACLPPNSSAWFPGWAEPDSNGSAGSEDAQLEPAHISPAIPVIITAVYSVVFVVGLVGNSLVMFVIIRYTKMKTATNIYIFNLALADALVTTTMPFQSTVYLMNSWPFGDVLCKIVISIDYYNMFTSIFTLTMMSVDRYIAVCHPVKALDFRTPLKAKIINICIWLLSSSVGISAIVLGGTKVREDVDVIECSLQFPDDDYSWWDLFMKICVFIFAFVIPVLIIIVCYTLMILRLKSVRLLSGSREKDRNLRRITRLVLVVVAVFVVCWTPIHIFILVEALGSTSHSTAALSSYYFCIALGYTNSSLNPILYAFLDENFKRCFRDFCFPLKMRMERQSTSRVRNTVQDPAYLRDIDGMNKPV
PAC1 (PACAP), sequence (P41586 21-468): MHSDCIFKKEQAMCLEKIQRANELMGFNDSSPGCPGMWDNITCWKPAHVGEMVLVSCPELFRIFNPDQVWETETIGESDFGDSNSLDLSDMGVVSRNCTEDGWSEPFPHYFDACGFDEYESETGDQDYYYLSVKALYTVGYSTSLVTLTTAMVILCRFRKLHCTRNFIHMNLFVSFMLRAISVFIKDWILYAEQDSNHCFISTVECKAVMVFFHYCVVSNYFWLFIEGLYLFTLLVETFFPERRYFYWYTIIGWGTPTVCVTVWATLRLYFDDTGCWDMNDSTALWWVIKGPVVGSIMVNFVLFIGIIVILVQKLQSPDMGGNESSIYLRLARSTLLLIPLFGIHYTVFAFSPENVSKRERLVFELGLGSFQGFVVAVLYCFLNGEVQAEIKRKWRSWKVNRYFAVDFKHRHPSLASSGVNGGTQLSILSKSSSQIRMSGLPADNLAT
Y1, sequence (P25929 whole entry): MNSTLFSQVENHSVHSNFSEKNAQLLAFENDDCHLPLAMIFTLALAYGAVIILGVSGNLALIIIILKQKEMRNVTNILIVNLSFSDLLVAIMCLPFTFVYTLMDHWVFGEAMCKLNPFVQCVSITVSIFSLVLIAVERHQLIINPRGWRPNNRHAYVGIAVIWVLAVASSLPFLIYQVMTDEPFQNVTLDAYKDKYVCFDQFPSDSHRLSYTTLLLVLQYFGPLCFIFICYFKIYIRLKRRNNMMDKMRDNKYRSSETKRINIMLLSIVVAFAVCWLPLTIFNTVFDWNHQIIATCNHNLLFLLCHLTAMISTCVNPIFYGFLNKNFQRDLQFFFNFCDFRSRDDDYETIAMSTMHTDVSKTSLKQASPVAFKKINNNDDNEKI
D2S, sequence (P14416 1-414 isoform P14416-2): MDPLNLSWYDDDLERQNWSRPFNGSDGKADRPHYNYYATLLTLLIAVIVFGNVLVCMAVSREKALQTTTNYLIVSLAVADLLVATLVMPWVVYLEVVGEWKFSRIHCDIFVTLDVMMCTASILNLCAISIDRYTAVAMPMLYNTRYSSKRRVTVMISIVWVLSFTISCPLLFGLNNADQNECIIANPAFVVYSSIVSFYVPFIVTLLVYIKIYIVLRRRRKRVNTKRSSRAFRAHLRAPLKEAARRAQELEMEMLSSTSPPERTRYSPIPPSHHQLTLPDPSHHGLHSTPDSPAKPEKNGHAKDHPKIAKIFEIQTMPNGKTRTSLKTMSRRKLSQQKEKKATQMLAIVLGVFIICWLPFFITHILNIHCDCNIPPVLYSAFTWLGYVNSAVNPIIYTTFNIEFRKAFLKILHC
µ (MOP), sequence (P35372 whole entry): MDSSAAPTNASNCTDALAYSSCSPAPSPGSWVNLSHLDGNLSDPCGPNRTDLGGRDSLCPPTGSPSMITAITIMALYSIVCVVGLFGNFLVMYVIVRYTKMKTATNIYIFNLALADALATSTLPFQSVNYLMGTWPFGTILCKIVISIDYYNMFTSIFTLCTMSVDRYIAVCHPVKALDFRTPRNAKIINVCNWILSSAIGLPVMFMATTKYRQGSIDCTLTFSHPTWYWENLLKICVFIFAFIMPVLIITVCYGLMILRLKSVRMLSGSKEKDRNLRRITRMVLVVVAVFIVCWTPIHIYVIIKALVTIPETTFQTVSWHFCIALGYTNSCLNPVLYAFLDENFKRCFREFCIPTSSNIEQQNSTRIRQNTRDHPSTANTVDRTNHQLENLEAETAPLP
M3, sequence (P20309 whole entry): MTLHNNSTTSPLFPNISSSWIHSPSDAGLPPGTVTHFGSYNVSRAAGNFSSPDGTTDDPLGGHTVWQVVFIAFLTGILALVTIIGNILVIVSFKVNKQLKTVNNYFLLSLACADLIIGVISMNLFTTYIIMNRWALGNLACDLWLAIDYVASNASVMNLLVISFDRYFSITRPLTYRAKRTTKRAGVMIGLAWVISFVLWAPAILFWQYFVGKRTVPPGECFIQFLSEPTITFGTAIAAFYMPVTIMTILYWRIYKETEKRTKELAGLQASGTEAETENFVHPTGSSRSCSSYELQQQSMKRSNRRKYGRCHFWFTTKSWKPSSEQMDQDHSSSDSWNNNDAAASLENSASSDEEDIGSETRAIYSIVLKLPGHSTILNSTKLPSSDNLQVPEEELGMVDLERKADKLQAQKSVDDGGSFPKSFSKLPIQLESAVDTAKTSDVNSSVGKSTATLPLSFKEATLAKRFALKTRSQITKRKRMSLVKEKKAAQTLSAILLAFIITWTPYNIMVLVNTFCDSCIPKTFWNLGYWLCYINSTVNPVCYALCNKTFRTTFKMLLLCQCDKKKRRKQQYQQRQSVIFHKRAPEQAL

In the case of O=C([O-])c1ccc(C2(NC(=O)[C@H]3CC4(CCN3Cc3ccc(C(F)(F)F)cc3)CC4)CC2)cc1.[Na+] [CR6086, Sodium (R)-4-(1-(6-(4-(trifluoromethyl)benzyl)-6-azaspiro[2.5]octane-5-carboxamido)cyclopropyl)benzoate], the inhibition at 10 µM [1] is reported as < 20%, the inhibition at 10 µM [2] is reported as < 20% and the inhibition at 10 µM [3] is reported as < 20%. The “effect on disease parameters (visual clinical score, paw swelling) vs vehicle” value [4] was “significantly improved”, the “Mechanical hyperalgesia, Day 0” value ([5]; Day 0) was 850.45 ± 59.57^a gram-force and the “Mechanical hyperalgesia, Day 7” value ([5]; Day 7) was 846.33 ± 43.60^b,c gram-force. The “Mechanical hyperalgesia, Day 14” value ([5]; Day 14) was 1023.09 ± 53.97^d gram-force, the inhibition at 10 µM [6] was < 20% and the inhibition at 10 µM [7] was < 20%. For the same compound, the inhibition at 10 µM [8] was < 20%, the inhibition at 10 µM [9] was < 20% and the inhibition at 10 µM [10] was < 20%. The fraction unbound [11] was 0.0484, the inhibition at 10 µM [12] was < 20% and the “CR6086 Activity at 10µM” value [13] was “IN up to 100µM (IN = < 20% displacement or inhibition (all tables))”.
